“Also recorded” adds a separate entry of the source. Where two headings read alike, the source gives them in different places.
Assays:
ROCK1 = target: T1, ROCK1 (Homo sapiens, UniProt Q13464); assay: ROCK1 protein kinase assay (Kinase-Glo Luminescent Kinase Assay); type: biochemical
T1 construct: purchased Invitrogen; Thermo Fisher Scientific
Protocol: (§1) Dose response analyses were conducted to establish IC50 values, which were converted to Ki values using the Cheng-Prusoff Equation Ki = IC50/(1 + ([ATP]/Km ATP).

[1] = tested on: transformed HTM cells (TM-1); assay: Cell-based assay measuring disruption of focal adhesions (paxillin staining); design: species or system human; conditions: 6 h, TM-1 cells on fibronectin-coated glass, Mean ± SEM, N ≥ 3
Protocol: Cell-based assays measuring disruption of focal adhesions were conducted using transformed HTM cells (TM-1; kind gift from Donna Peters; Department of Ophthalmology and Visual Sciences, University of Wisconsin), as previously described ([39]). […] TM-1 cells were stained with an anti-paxillin primary antibody followed by incubation with an Alexa Fluor-488 fluorescent secondary antibody and Hoechst 33342 counterstain (all from Invitrogen) to reveal focal adhesions and nuclei, respectively. Images were collected on an INCell 1000 imager (GE Healthcare, Marlborough, MA, USA), and total area of focal adhesions was measured using a custom algorithm developed using the INCell Developer Toolbox, v1.6. Dose response analyses were conducted to establish IC50 values.

[2] = tested on: HTM cell-encapsulated ECM hydrogels; assay: HTM hydrogel contraction analysis after TGFβ2 induction and ROCKi rescue; type: cell-based, human; conditions: for HTM hydrogel contraction reversal compared with 10 µM Y27632 / Concentrations giving significantly decreased HTM hydrogel contraction compared to the TGFβ2 group / EC50: HTM07; for Concentrations giving significantly decreased HTM hydrogel contraction compared to the TGFβ2 group: dose range 0.0001-1.0 µM, 5-10 d; for EC50 / Increase of HTM hydrogel contraction over controls: TGFβ2 2.5 ng/ml 0-5 d; for EC50: then ROCKi 0.0001-1.0 µM 5-10 d, read-out: EC50, reduction of TGFβ2-induced HTM hydrogel contraction
Protocol: HTM cells (1.0 × 10^6 cells/ml) were thoroughly mixed with MA-COL (3.6 mg/ml), SH-HA (0.5 mg/ml, 0.025% (w/v) photoinitiator) and SH-ELP (2.5 mg/ml) on ice ( Supplementary Figure 2A ), followed by pipetting 10 μl droplets of the HTM cell-laden hydrogel precursor solution onto polydimethylsiloxane-coated (PDMS; Sylgard 184; Dow Corning) 24-well culture plates ( Supplementary Figure 2B ), according to our established protocols ([32]–[34]). Alternatively, 30 µl droplets of the HTM cell-laden hydrogel precursor solution were pipetted onto Surfasil-coated (Fisher Scientific) 18 × 18-mm square glass coverslips followed by placing a regular 12-mm round glass coverslip onto the hydrogels to facilitate even spreading of the polymer solution. HTM hydrogels were crosslinked by exposure to UV light (OmniCure S1500 UV Spot Curing System; Excelitas Technologies, Mississauga, Ontario, Canada) at 320-500 nm, 2.2 W/cm^2 for 5 s. The HTM hydrogel-adhered coverslips were removed with fine-tipped tweezers and placed hydrogel-side facing up in PDMS-coated 24-well culture plates ( Supplementary Figure 2C ).
Longitudinal brightfield images of HTM hydrogels subjected to the different treatments were acquired at 0 d and 10 d with an Eclipse Ti microscope (Nikon Instruments, Melville, NY, USA). Construct area was measured using Fiji software (National Institutes of Health (NIH), Bethesda, MD, USA) and normalized to 0 d followed by normalization to controls.

[3] = tested on: F-actin stress fibers in hydrogel-encapsulated HTM cells; assay: HTM hydrogel immunocytochemistry, F-actin stress fibers; type: cell-based, human; conditions: for Effect on TGFβ2-induced F-actin stress fibers vs. TGFβ2 group: HTM05, HTM07, HTM36
Protocol: Alternatively, 30 µl droplets of the HTM cell-laden hydrogel precursor solution were pipetted onto Surfasil-coated (Fisher Scientific) 18 × 18-mm square glass coverslips followed by placing a regular 12-mm round glass coverslip onto the hydrogels to facilitate even spreading of the polymer solution. HTM hydrogels were crosslinked by exposure to UV light (OmniCure S1500 UV Spot Curing System; Excelitas Technologies, Mississauga, Ontario, Canada) at 320-500 nm, 2.2 W/cm^2 for 5 s. The HTM hydrogel-adhered coverslips were removed with fine-tipped tweezers and placed hydrogel-side facing up in PDMS-coated 24-well culture plates ( Supplementary Figure 2C ).
Nuclei were counterstained with 4′,6′-diamidino-2-phenylindole (DAPI; Abcam). Coverslips were mounted with ProLong™ Gold Antifade (Invitrogen) on Superfrost™ microscope slides (Fisher Scientific), and fluorescent images were acquired with a Zeiss LSM 780 confocal microscope (Zeiss, Germany). […] Individual z-stacks consisted of 7 slices with the z-step interval set to […]. Fluorescence signal intensity of F-actin and αSMA were determined using Z-project maximum intensity projections in Fiji (NIH) with image background subtraction.

ROCK1/2 [4] = assay: ROCK1/2 kinase assays, average of both isoforms; type: biochemical, human; conditions: average of ROCK1 and ROCK2 Ki
Protocol: as §1

[5] = tested on: normotensive Dutch Belted rabbits; design: method as in unpublished data; conditions: ref unpublished data; cited from earlier work
cellular esterases = conditions: stated in discussion, no reference given; cited from earlier work
ROCK2 = target: T2, ROCK2 (Homo sapiens, UniProt O75116); assay: ROCK2 protein kinase assay (Kinase-Glo Luminescent Kinase Assay); type: biochemical
T2 construct: purchased Invitrogen; Thermo Fisher Scientific
T2 sequence (O75116 whole entry): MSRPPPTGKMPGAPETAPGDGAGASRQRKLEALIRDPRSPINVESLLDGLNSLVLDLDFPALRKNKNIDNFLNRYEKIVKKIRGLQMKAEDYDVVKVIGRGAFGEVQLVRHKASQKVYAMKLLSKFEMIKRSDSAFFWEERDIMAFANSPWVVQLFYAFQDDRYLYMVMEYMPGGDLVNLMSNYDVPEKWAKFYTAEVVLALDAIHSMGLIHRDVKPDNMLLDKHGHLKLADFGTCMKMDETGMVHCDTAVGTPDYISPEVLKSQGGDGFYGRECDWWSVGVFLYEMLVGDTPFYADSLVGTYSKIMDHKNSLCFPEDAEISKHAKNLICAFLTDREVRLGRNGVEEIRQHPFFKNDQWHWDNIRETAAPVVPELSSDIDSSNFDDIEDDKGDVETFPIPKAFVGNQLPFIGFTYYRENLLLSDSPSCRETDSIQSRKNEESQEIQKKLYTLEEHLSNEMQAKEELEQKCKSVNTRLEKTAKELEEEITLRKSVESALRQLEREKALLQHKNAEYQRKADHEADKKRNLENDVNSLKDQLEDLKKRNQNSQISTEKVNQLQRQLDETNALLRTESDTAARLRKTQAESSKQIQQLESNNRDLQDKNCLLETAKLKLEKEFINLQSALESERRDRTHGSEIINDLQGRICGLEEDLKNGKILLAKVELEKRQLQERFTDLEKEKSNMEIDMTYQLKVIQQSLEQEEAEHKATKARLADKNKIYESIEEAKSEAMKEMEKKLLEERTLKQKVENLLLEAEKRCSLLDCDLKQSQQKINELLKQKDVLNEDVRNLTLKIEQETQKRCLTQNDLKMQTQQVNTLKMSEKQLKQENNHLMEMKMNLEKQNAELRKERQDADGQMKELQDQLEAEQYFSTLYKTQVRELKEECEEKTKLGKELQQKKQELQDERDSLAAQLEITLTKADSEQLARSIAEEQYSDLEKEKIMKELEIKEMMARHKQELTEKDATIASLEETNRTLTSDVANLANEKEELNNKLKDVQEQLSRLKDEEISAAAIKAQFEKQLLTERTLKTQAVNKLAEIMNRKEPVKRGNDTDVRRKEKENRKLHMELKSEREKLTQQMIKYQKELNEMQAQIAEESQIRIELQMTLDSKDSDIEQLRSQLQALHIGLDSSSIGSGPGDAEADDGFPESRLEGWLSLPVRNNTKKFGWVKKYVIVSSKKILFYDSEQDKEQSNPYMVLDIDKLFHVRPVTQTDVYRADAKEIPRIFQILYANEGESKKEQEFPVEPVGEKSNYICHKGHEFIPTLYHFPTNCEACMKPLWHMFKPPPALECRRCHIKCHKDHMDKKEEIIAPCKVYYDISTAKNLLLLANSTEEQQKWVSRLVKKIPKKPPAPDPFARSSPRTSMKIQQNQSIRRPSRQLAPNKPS
Protocol: as §1

[6] = stated in discussion, no reference given; cited from earlier work
[7] = tested on: transformed HTM cells (TM-1); conditions: same cell-based assay; ref [13]; read-out: IC50 of Y27632, HTM cell focal adhesion disruption; cited from earlier work
ROCK1/2 [8] = conditions: same biochemical assay; ref [13]; read-out: Ki of Y27632; cited from earlier work
[9] = each compound at its respective EC50, HTM05, HTM07, HTM36
[10] = each compound at its respective EC50
[11] = each compound at its respective EC50, across HTM05, HTM07, HTM36, 10 d
[12] = each compound at its respective EC50, pooled HTM05, HTM07, HTM36, 10 d
[13] = TGFβ2 induction group, across three cell strains

T1 sequence (Q13464 whole entry): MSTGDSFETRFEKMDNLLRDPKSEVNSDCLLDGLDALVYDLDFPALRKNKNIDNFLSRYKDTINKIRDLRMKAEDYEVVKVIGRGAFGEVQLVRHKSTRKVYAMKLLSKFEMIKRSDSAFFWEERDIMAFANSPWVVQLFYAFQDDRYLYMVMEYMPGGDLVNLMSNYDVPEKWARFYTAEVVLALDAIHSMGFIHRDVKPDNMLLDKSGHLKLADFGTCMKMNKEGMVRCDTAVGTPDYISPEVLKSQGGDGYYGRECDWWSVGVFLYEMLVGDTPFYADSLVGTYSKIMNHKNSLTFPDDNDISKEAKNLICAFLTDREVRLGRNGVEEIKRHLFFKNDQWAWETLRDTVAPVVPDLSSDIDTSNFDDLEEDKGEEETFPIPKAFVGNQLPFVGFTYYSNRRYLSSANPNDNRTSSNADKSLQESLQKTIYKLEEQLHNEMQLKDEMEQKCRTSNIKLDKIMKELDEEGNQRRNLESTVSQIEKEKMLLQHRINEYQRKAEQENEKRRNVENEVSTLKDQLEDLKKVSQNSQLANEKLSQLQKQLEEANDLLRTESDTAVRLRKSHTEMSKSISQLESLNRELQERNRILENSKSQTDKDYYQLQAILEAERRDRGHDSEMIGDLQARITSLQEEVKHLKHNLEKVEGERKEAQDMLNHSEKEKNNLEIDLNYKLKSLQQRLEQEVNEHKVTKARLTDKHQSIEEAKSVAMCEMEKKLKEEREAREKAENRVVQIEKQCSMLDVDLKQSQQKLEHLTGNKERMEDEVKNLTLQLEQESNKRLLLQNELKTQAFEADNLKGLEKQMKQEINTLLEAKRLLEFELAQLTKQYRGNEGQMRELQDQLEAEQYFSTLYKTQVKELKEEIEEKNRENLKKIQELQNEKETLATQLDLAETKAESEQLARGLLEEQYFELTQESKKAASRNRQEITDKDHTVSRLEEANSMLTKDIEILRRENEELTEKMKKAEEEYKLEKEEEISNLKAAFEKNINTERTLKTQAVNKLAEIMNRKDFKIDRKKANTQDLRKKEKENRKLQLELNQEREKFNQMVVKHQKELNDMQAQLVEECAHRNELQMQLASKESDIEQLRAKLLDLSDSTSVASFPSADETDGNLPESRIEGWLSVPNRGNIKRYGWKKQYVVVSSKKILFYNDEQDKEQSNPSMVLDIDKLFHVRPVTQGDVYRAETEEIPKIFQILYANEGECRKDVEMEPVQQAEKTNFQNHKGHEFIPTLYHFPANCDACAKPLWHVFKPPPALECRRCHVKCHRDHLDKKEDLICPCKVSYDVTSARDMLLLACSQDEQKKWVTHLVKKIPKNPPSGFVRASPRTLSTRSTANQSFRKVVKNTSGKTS

Molecule | Ki (ROCK1) [nM] | IC50 ([1]; Homo sapiens) [nM] | EC50 ([2]; Homo sapiens, HTM) [nM] | Ki (ROCK1/2 [4]) [nM] | Ki (ROCK2) [nM] | HTM hydrogel contraction reversal compared with 10 µM Y27632 ([2]; compound at 1.0 µM) | Concentrations giving significantly decreased HTM hydrogel contraction compared to the TGFβ2 group [2] [µM] | Effect on TGFβ2-induced HTM hydrogel contraction vs. TGFβ2 group [2, 9] | Effect on TGFβ2-induced F-actin stress fibers vs. TGFβ2 group [3, 10] | Intraocular pressure lowering [5] | Metabolism by cellular esterases (ester hydrolysis) (cellular esterases) | Relative hydrogel size vs. controls [2, 11] | Relative F-actin signal fold-change vs. controls [3, 12] | also measured
NC[C@@H](C(=O)Nc1ccc2cnccc2c1)c1ccc(COC(=O)c2ccccc2)cc1 [Compound A] | 1.5 ± 0.7 | ~15 | 3.7 | ~1.4 | – | not different | ≥ 0.01 | failed to reverse | not different from TGFβ2 | did not perform as well; also recorded: unable to significantly lower intraocular pressure | more quickly metabolized than netarsudil | – | – | Effect on TGFβ2-induced HTM hydrogel contraction, HTM36 ([2]; uniform ROCKi concentration of 35.9 nM, HTM36): significantly decreased
NC[C@@H](C(=O)Nc1ccc2cnccc2c1Cl)c1ccccc1 [Compound B] | 1.7 | – | 22.2 | ~1.9 | 2 | – | ≥ 0.1 | significantly decreased TGFβ2-induced HTM hydrogel contraction using HTM05 and HTM36 cells | significantly decreased | did not perform as well as netarsudil | cannot be metabolized by cellular esterases at all | ~ 105% | ~ 1.1 fold-change | –
C[C@@H](N)[C@H]1CC[C@H](C(=O)Nc2ccncc2)CC1 [Compound Y27632, Y27632] | – | – | – | – | – | – | – | – | – | – | – | – | – | IC50 [7]: ~1740 nM; Ki (ROCK1/2 [8]): ~31.5 nM
Cc1ccc(C(=O)OCc2ccc([C@@H](CN)C(=O)Nc3ccc4cnccc4c3)cc2)c(C)c1 [Netarsudil] | – | – | – | ~2.7 | – | significantly more potent | ≥ 0.01 | significantly decreased | significantly decreased | – | – | – | – | IC50 [1]: 17 ± 2 nM; IC50 ([1]; listed as netarsudil): ~17 nM; Effect on TGFβ2-induced HTM hydrogel contraction, overall across HTM07 and HTM36 [2]: significantly decreased; EC50 [2]: 35.9 nM; HTM hydrogel contraction reversal compared with 10 µM Y27632 ([2]; compound at 0.1 µM): equivalent; Difference in efficacy, netarsudil 1.0 µM vs. 35.9 nM ([2]; HTM hydrogel contraction, across three cell strains): ~ 1.2 fold; Effect on F-actin signal ([3]; max level netarsudil, 1.0 µM): nearly abolishing the F-actin signal
TGFβ2: transforming growth factor beta 2, used to induce a glaucoma-like cell phenotype (protein, UniProt P61812 303-414, looked up) Transforming growth factor …: ALDAAYCFRNVQDNCCLRPLYIDFKRDLGWKWIHEPKGYNANFCAGACPYLWSSDTQHSRVLSLYNTINPEASASPCCVSQDLEPLTILYYIGKTPKIEQLSNMIVKSCKCS | – | – | – | – | – | – | – | – | – | – | – | – | – | Increase of HTM hydrogel contraction over controls ([2]; HTM05, HTM07, HTM36): ~ 25%; Increase of HTM hydrogel contraction over controls ([2]; HTM07 and HTM36, higher passage cells): ~ 15%; Relative hydrogel size vs. controls [2, 13]: ~ 75%; Relative F-actin signal fold-change vs. controls [3, 13]: ~ 1.9 fold-change

Further lines, with some results ahead:

Ki (ROCK1) [nM] | IC50 ([1]; Homo sapiens) [nM] | EC50 ([2]; Homo sapiens, HTM) [nM] | Ki (ROCK1/2 [4]) [nM] | Ki (ROCK2) [nM] | Molecule | HTM hydrogel contraction reversal compared with 10 µM Y27632 ([2]; compound at 1.0 µM) | Concentrations giving significantly decreased HTM hydrogel contraction compared to the TGFβ2 group [2] [µM] | Effect on TGFβ2-induced HTM hydrogel contraction vs. TGFβ2 group [2, 9] | Effect on TGFβ2-induced F-actin stress fibers vs. TGFβ2 group [3, 10] | Intraocular pressure lowering [5] | Metabolism by cellular esterases (ester hydrolysis) (cellular esterases) | Relative hydrogel size vs. controls [2, 11] | Relative F-actin signal fold-change vs. controls [3, 12] | also measured
1.8 ± 0.3 | ~5.6 | 6.7 | ~1.5 | 1.2 ± 0.4 | NC[C@@H](C(=O)Nc1ccc2cnccc2c1)c1ccc(Cl)cc1 [Compound C] | comparable | ≥ 0.01 | failed to rescue | significantly different from TGFβ2 | did not perform as well; also recorded: unable to significantly lower intraocular pressure | cannot be metabolized by cellular esterases at all | ~ 87% | ~ 1.3 fold-change | –
4.5 ± 2 | ~193 | 123 | ~3.1 | 1.7 ± 0.7 | NC[C@@H](C(=O)Nc1ccc2cnccc2c1)c1ccc(O)cc1 [Compound D] | – | ≥ 0.1 | significantly decreased | significantly decreased TGFβ2-induced F-actin stress fibers across all three HTM cell strains | did not perform as well as netarsudil | – | ~ 96% | ~ 0.8 fold-change | Ionization at physiological pH [6]: partially ionized at physiological pH
